The values below come from patent US20200291018A1, “TAM KINASE INHIBITORS” (SYROS PHARMACEUTICALS, INC., priority 2017, published 2020).

Assay [1] has as its target T1, TYRO3 (Homo sapiens, UniProt Q06418).
T1 sequence (Q06418 41-890): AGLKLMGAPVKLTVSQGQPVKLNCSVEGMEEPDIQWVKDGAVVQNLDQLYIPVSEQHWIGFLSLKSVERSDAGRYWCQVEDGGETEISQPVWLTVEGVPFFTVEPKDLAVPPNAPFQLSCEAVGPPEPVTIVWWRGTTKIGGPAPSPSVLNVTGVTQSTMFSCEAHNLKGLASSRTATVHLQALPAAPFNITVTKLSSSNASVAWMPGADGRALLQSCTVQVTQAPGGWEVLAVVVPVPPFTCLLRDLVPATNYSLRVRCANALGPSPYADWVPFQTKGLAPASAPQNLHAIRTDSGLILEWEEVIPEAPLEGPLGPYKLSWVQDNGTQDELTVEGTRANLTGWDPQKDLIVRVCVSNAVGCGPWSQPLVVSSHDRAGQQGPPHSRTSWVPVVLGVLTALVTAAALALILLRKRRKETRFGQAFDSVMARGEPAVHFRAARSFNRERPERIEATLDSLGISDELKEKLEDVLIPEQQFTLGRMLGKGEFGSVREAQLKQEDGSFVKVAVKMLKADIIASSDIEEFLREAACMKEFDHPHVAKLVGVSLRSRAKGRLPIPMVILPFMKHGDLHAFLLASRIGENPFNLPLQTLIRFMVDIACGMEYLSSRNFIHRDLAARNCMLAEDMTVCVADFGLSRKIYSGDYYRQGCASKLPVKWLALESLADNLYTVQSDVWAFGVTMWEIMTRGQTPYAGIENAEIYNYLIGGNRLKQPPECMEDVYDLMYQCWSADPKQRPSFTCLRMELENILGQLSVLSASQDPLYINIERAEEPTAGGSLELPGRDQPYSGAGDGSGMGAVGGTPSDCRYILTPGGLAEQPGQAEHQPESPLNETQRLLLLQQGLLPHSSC
Kind of assay: TR-FRET kinase activity assay, TYRO3. Conditions: ATP at Km, 60 minutes. The assay is classed as biochemical. An outline of the steps:
(§1)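 IC50 came from TR-FRET signal after 30 min dark development with a Europium-labeled phospho-specific antibody. This followed a 60 min RT reaction, stopped with EDTA, started with ATP at Km per enzyme. Peptide substrate, enzyme and compound were premixed in HEPES pH 7.5 buffer with MgCl2, EGTA, Brij 35 and DTT.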
For orientation: In TR-FRET formats the signal depends on donor and acceptor labels being close together.

The target in assay [2] is T2, AXL (Homo sapiens, UniProt P30530).
T2 sequence (P30530 26-894): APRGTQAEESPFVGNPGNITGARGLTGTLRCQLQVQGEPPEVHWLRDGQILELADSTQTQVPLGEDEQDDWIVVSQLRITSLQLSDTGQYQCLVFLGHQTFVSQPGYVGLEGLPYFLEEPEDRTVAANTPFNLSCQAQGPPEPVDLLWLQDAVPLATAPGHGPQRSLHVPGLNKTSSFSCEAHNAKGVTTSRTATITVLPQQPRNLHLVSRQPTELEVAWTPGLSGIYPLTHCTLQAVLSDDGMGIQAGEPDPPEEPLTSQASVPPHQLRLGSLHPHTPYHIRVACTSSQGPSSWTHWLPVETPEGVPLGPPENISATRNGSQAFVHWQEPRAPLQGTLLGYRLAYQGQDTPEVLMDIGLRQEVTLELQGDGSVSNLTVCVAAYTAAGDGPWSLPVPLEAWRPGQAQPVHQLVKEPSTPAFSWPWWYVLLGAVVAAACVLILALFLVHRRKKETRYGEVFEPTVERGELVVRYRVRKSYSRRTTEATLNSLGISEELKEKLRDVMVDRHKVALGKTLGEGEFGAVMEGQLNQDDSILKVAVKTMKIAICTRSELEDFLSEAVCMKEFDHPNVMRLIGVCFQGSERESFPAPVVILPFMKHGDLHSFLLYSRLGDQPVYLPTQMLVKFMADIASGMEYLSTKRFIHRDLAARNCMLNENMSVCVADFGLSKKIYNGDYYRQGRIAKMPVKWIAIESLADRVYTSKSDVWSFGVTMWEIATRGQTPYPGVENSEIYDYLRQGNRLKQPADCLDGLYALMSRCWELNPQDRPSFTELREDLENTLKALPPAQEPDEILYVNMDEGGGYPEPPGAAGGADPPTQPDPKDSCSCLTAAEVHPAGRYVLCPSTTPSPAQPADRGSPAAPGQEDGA
Kind of assay: TR-FRET kinase activity assay, AXL. The class given is biochemical. Conditions: ATP at Km, 60 minutes. The method, boiled down: as §1

In the case of `CC(=O)N[C@H]1C[C@@H](Oc2ncc([C@H]3CC[C@H](O)CC3)c3nc(N[C@@H](C)CC(F)(F)F)ncc23)C1` [Compound 433], the IC50 in assay [1] and in assay [2] was not above 100 nM each time.
In the case of `CO[C@H]1C[C@@H](Oc2ncc([C@H]3CC[C@H](O)CC3)c3nc(N[C@@H](C)CC(F)(F)F)ncc23)C1` [Compound 434], the IC50 (in general, the concentration at which inhibition is half-maximal) is not above 100 nM in assay [1] and 100 to 1000 nM in assay [2].
Consider `COC(=O)N[C@H]1C[C@@H](Oc2ncc([C@H]3CC[C@H](O)CC3)c3nc(N[C@@H](C)CC(F)(F)F)ncc23)C1` [Compound 435], for which the IC50 in assay [1] and in assay [2] was not above 100 nM each time.
As for `CC(=O)N1[C@@H]2CC[C@H]1C[C@H](Oc1ncc([C@H]3CC[C@H](O)CC3)c3nc(N[C@@H](C)CC(F)(F)F)ncc13)C2` [Compound 436], the IC50 in assay [1] and in assay [2] was not above 100 nM in each case.
`C[C@@H](CC(F)(F)F)Nc1ncc2c(O[C@@H]3C[C@H]4CC[C@@H](C3)N4C3COC3)ncc([C@H]3CC[C@H](O)CC3)c2n1` [Compound 437]: the IC50 in assay [1] and in assay [2] was not above 100 nM each time.
